This experiment relates to nude mice, LX-1 lung xenograft intrarenal, tumor weight T/C. Description: NCI In Vivo Anticancer Drug Screen. Data for tumor model Human Lung LX-1 Xenograft (intrarenal inoculation) in NU/NU Swiss (nude) mice. The conditions noted are these: endpoint: mean tumor weight change, higher = larger tumour. The method in brief: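 Readout: T/C, i.e. treated-group tumor measurement over vehicle-control measurement. Mice bearing transplantable tumors were dosed with compound or vehicle.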
For orientation: In xenograft studies the graft and the host belong to different species.

Setting [1] is: dose: 150.0 mg/kg/injection, schedule: Q04DX003 (sc), vehicle: Klucel (hydroxypropylcellulose) (HPC).
Setting [2] is: dose: 600.0 mg/kg/injection, schedule: Q04DX003 (sc), vehicle: Klucel (hydroxypropylcellulose) (HPC).
The mark [3] stands for this setting: dose: 1200.0 mg/kg/injection, schedule: Q04DX003 (sc), vehicle: Klucel (hydroxypropylcellulose) (HPC).
Where [4] appears, read: dose: 300.0 mg/kg/injection, schedule: Q04DX003 (sc), vehicle: Klucel (hydroxypropylcellulose) (HPC).
Where [5] appears, read: dose: 200.0 mg/kg/injection, schedule: Q04DX003 (sc), vehicle: saline with Tween-80.

“And” between values parts separate entries of the source, which are not always exact repeats. Equal values may be shown once. Results filed as inconclusive are left out.

On to `O=c1[nH]c2c(ccc3cnccc32)c2c1CCC2`, for which the T/C (dose: 100.0 mg/kg/injection, schedule: Q04DX003 (sc), vehicle: suspension in saline) was 87 % of control; the T/C (dose: 200.0 mg/kg/injection, schedule: Q04DX003 (sc), vehicle: suspension in saline) was 87 % of control; the T/C (dose: 400.0 mg/kg/injection, schedule: Q04DX003 (sc), vehicle: suspension in saline) is 57 % of control; the T/C (dose: 800.0 mg/kg/injection, schedule: Q04DX003 (sc), vehicle: suspension in saline) was 109 % of control.
On to `CN(C)CCN1C(=O)c2cccc3cc([N+](=O)[O-])cc(c23)C1=O`, for which the T/C reads like this: (dose: 9.0 mg/kg/injection, schedule: Q04DX003 (sc), vehicle: saline with Tween-80) 94 % of control; (dose: 18.0 mg/kg/injection, schedule: Q04DX003 (sc), vehicle: saline with Tween-80) 108 % of control; (dose: 36.0 mg/kg/injection, schedule: Q04DX003 (sc), vehicle: saline with Tween-80) 95 % of control.
Consider `CC(C)(C)c1ccc(CN2CCN(C(c3ccccc3)c3ccc(Cl)cc3)CC2)cc1` (stereo not given), for which the T/C is 79 % of control (dose: 37.5 mg/kg/injection, schedule: Q04DX003 (sc), vehicle: Klucel (hydroxypropylcellulose) (HPC)); 63 % of control (dose: 75.0 mg/kg/injection, schedule: Q04DX003 (sc), vehicle: Klucel (hydroxypropylcellulose) (HPC)); 71 % of control under setting [1]; 63 % of control under setting [2]; 78 % of control under setting [3]; 62 % of control (dose: 2400.0 mg/kg/injection, schedule: Q04DX003 (sc), vehicle: Klucel (hydroxypropylcellulose) (HPC)).
On to `COc1cc(NS(C)(=O)=O)ccc1Nc1c2ccccc2nc2ccccc12`, for which the T/C is, setting by setting: (dose: 0.47 mg/kg/injection, schedule: Q01DX010 (sc), vehicle: clinical formulation) 151 % of control; (dose: 0.75 mg/kg/injection, schedule: Q01DX010 (sc), vehicle: other) 99 % of control; (dose: 0.94 mg/kg/injection, schedule: Q01DX010 (sc), vehicle: lactic acid) 84 % of control; (dose: 1.5 mg/kg/injection, schedule: Q01DX010 (sc), vehicle: other) 88 % of control; (dose: 1.88 mg/kg/injection, schedule: Q01DX010 (sc), vehicle: clinical formulation) 110 % of control; (dose: 1.88 mg/kg/injection, schedule: Q01DX010 (sc), vehicle: lactic acid) 109 % of control. For the same compound, the T/C reads like this: (dose: 3.0 mg/kg/injection, schedule: Q01DX010 (sc), vehicle: other) 64 % of control; (dose: 3.75 mg/kg/injection, schedule: Q01DX010 (sc), vehicle: lactic acid) 46 % of control.
Turning to `COc1cc(C(=O)c2cc3c(cc2C)OCO3)cc(OC)c1OC`, the T/C is, setting by setting: under setting [1], 78 % of control; under setting [4], 71 % of control; under setting [2], 80 % of control; under setting [3], 82 % of control.
In the case of `Cc1cc2cc3cc(C)c(N)cc3nc2cc1N`, the T/C reads like this: (dose: 100.0 mg/kg/injection, schedule: Q04DX003 (sc), vehicle: saline with Tween-80) 77 % of control; under setting [5], 51 % of control; (dose: 400.0 mg/kg/injection, schedule: Q04DX003 (sc), vehicle: saline with Tween-80) 63 % of control; (dose: 800.0 mg/kg/injection, schedule: Q04DX003 (sc), vehicle: saline with Tween-80) 95 % of control.
In the case of `C=CC(=O)NCNC(=O)C=C`, the T/C is 88 % of control (dose: 25.0 mg/kg/injection, schedule: Q01DX010 (sc), vehicle: saline); 103 % of control (dose: 50.0 mg/kg/injection, schedule: Q01DX010 (sc), vehicle: saline); 64 % of control (dose: 100.0 mg/kg/injection, schedule: Q01DX010 (sc), vehicle: saline).
On to `O=c1oc2c(O)c(O)cc3c(=O)oc4c(O)c(O)cc1c4c23`, for which the T/C runs as follows: under setting [1], 215 % of control; under setting [4], 86 % of control; under setting [2], 88 % of control; under setting [3], 81 % of control.
Regarding `COC1C(O)C(C)OC(OC2C(Oc3cccc4c(O)c5c(=O)oc6ccc(C)c7c(=O)oc(c34)c5c67)OC(C)C(O)C2O)C1O` (stereo not given), the T/C by setting is: (dose: 50.0 mg/kg/injection, schedule: Q01DX010 (sc), vehicle: Klucel (hydroxypropylcellulose) (HPC)) 84 % of control; (dose: 100.0 mg/kg/injection, schedule: Q01DX010 (sc), vehicle: Klucel (hydroxypropylcellulose) (HPC)) 63 % of control; (dose: 200.0 mg/kg/injection, schedule: Q01DX010 (sc), vehicle: Klucel (hydroxypropylcellulose) (HPC)) 54 % of control; (dose: 400.0 mg/kg/injection, schedule: Q01DX010 (sc), vehicle: Klucel (hydroxypropylcellulose) (HPC)) 58 % of control.
Regarding `C=C(C)C(=NC(C)(C)C)Nc1ccccc1`, the T/C is, setting by setting: (dose: 50.0 mg/kg/injection, schedule: Q04DX003 (sc), vehicle: saline with Tween-80) 62 % of control; under setting [5], 34 % of control.
Turning to `Cc1[nH]c(=O)[nH]c(=O)c1N(CCF)CCCl`, the T/C (dose: 40.0 mg/kg/injection, schedule: Q01DX010 (sc), vehicle: Klucel (hydroxypropylcellulose) (HPC)) is 19 % of control and 34 % of control and 36 % of control.
Turning to `CCn1cnc2c(=S)nc[nH]c21`, the T/C was 159 % of control (dose: 150.0 mg/kg/injection, schedule: Q04DX003 (sc), vehicle: saline) and 224 % of control (dose: 600.0 mg/kg/injection, schedule: Q04DX003 (sc), vehicle: saline).
With `CN1N=C(N)c2cn(C3OC(COP(=O)(O)O)C(O)C3O)c3ncnc1c23` (stereo not given), the T/C was 107 % of control (dose: 12.5 mg/kg/injection, schedule: Q01DX010 (sc), vehicle: water); 109 % of control (dose: 25.0 mg/kg/injection, schedule: Q01DX010 (sc), vehicle: water); 81 % of control (dose: 50.0 mg/kg/injection, schedule: Q01DX010 (sc), vehicle: water).
Consider `C[C@@]12C(=O)OC(=O)[C@]1(C)[C@H]1CC[C@@H]2O1`, for which the T/C was 113 % of control (dose: 1.25 mg/kg/injection, schedule: Q04DX003 (sc), vehicle: Klucel (hydroxypropylcellulose) (HPC)) and 86 % of control (dose: 2.5 mg/kg/injection, schedule: Q04DX003 (sc), vehicle: Klucel (hydroxypropylcellulose) (HPC)).

The values above are taken from PubChem BioAssay AID264 (DTP/NCI, 2004).
